This note sets out measurements from ChEMBL document CHEMBL1155401, “The development of benzimidazoles as selective rho kinase inhibitors” (Bioorg Med Chem Lett, 2010).

Structures are written as SMILES.

Data set [1] concerns the target Cytochrome P450 2D6 (Homo sapiens, UniProt P10635). Briefly: Inhibition of CYP2D6. Type of data set: ADME.
Data set [2] in a line: Inhibition of PKA.
Data set [3] can be described thus: Selectivity ratio of IC50 for PKA to IC50 to ROCK.
For data set [4], the target named is Cytochrome P450 3A4 (Homo sapiens, UniProt P08684). The experiment in a line: Inhibition of CYP3A4. Type of data set: ADME.
Chain of Cytochrome P450 3A4 (P08684 whole entry): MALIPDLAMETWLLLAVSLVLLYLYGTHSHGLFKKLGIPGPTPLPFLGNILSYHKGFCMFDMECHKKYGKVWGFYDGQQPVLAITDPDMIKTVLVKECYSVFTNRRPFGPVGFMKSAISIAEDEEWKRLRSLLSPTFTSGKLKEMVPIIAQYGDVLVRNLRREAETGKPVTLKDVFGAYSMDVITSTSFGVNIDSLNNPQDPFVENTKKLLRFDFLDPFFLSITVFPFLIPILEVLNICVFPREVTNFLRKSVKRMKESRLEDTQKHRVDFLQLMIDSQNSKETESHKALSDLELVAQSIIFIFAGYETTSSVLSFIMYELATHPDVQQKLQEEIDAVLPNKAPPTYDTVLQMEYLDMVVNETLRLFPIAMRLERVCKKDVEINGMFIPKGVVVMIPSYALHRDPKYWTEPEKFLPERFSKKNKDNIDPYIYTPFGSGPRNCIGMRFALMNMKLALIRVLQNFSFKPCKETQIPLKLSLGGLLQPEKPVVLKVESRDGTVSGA
Data set [5] is described as follows: Inhibition of ROCK by enzyme-coupled luciferase-kinase assay.
Data set [6] concerns the target Cytochrome P450 2C9 (Homo sapiens, UniProt P11712). The experiment in a line: Inhibition of CYP2C9. In kind it is ADME.
Data set [7] deals with T1, Cytochrome P450 1A2 (Homo sapiens, UniProt P05177).
T1 sequence (P05177 whole entry): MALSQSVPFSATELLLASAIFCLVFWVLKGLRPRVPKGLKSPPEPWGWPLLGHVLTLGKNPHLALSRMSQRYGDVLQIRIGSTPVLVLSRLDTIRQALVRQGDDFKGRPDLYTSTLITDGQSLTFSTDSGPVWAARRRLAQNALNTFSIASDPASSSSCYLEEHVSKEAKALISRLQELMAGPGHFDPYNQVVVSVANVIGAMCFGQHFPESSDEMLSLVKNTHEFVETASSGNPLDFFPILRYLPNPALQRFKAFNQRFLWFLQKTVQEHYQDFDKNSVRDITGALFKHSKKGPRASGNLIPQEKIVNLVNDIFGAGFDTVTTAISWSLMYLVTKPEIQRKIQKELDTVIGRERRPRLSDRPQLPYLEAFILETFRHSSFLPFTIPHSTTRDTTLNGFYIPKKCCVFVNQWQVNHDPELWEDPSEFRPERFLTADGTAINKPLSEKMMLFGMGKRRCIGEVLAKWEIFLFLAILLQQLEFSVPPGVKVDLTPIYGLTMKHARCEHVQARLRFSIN
Briefly: Inhibition of CYP1A2. In kind it is ADME.

Data set [8] is described as follows: Inhibition of ROCK by myosin light chain phosphorylation assay.
Data set [9] concerns Rattus norvegicus. Briefly: AUC in rat at 2 mg/kg, po. In kind it is ADME, organism-based, Plasma. Also on record: dose 2 mg/kg, route oral. To be noted: in vivo.

Chain of Cytochrome P450 2D6 (P10635 whole entry): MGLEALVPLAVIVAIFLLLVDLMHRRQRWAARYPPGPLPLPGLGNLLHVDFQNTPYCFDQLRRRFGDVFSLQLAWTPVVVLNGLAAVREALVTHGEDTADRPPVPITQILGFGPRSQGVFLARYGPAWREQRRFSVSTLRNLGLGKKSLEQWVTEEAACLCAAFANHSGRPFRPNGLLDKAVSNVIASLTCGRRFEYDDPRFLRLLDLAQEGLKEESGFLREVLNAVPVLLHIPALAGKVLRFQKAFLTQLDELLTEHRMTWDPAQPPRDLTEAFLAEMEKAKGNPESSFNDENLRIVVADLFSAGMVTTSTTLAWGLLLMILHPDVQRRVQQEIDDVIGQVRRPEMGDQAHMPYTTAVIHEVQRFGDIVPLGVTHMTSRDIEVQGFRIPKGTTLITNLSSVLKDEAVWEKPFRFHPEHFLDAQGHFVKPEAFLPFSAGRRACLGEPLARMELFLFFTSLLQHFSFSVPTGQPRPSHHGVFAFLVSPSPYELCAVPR
Chain of Cytochrome P450 2C9 (P11712 whole entry): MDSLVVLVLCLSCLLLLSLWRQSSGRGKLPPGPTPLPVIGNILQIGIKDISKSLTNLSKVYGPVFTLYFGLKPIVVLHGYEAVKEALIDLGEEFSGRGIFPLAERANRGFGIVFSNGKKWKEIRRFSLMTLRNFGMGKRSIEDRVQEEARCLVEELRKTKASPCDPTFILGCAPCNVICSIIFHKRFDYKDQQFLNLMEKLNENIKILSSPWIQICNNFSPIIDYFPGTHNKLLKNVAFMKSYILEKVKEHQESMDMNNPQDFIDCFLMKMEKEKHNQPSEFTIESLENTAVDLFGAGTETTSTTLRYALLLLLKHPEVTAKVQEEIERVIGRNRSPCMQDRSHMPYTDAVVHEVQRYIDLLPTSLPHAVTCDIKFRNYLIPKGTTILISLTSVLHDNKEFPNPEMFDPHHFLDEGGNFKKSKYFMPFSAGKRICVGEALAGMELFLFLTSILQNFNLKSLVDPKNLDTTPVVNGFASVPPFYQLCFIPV

As usually defined, the IC50 is the concentration that gives 50% inhibition. A lower IC50 goes with inhibition by little substance. `Cn1c(C2COc3ccccc3O2)nc2cc(-c3ccncc3)ccc21` (configuration not stated): the result in data set [1], in [4], in data set [6] and in [7] was Active. Also, the IC50 in data set [2] stood at 3130 nM; in data set [5] it was 1780 nM. Besides, the Ratio IC50 in data set [3] amounted to 2.

With `COCCn1c(C2COc3ccccc3O2)nc2ccc(-c3ccncc3)cc21` (configuration not stated), the outcome in data set [1], in [4], in data set [6] and in data set [7] was Active. For the same compound, the IC50 in data set [2] is 310 nM; in [5] it was 11 nM. For the same compound, the Ratio IC50 in data set [3] stood at 28.

With `Nc1nccc(-c2ccc3nc(C4COc5ccc(C(=O)NCc6ccccc6)cc5C4)[nH]c3c2)n1` (configuration not stated), the 50% inhibitory concentration (IC50) in data set [2] was 78 nM; in data set [5], under 1 nM. In [3], the Ratio IC50 worked out at 78.

With `c1ccc2c(c1)CC(c1nc3ccc(-c4ccncc4)cc3[nH]1)CO2` (configuration not stated), the outcome in data set [1], in data set [4], in data set [6] and in data set [7] was Active. For the same compound, the IC50 in data set [2] amounted to 252 nM; in data set [5], 1.7 nM. For the same compound, the Ratio IC50 in data set [3] turned out to be 148.

In the case of `c1ccc(Cn2c(C3COc4ccccc4O3)nc3ccc(-c4ccncc4)cc32)cc1` (configuration not stated), the outcome in [1], in data set [4], in [6] and in [7] was Active. For the same compound, the half-inhibitory concentration (IC50) was 1000 nM in [2] and 190 nM in [5]. Also, the Ratio IC50 in [3] amounted to 5.

In the case of `Cc1c(-c2ccncc2)cc2[nH]c(C3COc4ccccc4O3)nc2c1C` (configuration not stated), the outcome in data set [1], in [4], in [6] and in data set [7] was Active. Besides, the IC50 in data set [2] and in data set [5] was over 20000 nM each time.

As to `CN(C)C(=O)c1ccc2c(c1)CC(c1nc3ccc(-c4ccnc(N)n4)cc3[nH]1)CO2` (configuration not stated), the IC50 in [2] stood at 1730 nM; in data set [5], 129 nM. Further, the Ratio IC50 in data set [3] was determined as 13.

Regarding `Cc1cc(-c2ccncc2)cc2[nH]c(C3COc4ccccc4O3)nc12` (configuration not stated), the result in [1], in data set [4], in [6] and in data set [7] was Active. Moreover, the results for the 50% inhibitory concentration (IC50) in [2] and in data set [5] were 1380 nM and 240 nM, respectively. In addition, in data set [3], the Ratio IC50 is 6.

In the case of `Nc1nccc(-c2ccc3nc(C4COc5ccc(C(=O)NC6CCCCC6)cc5C4)[nH]c3c2)n1` (configuration not stated), the 50% inhibitory concentration (IC50) amounted to 20 nM in data set [2] and 1.1 nM in data set [5]. The Ratio IC50 in data set [3] worked out at 18.

Regarding `COc1ccc2c(c1)CC(c1nc3c(OCCCO)cc(-c4ccncc4)cc3[nH]1)CO2` (configuration not stated), the result in data set [1], in data set [4], in [6] and in [7] was Active. The IC50 in data set [2] is 1590 nM; in [5], 183 nM. Also, the Ratio IC50 in data set [3] was determined as 9.

As for `Nc1nccc(-c2ccc3nc(C4COc5ccc(C(=O)NCCO)cc5C4)[nH]c3c2)n1` (configuration not stated), the IC50 was 370 nM in [2] and 2.8 nM in data set [5]. For the same compound, the Ratio IC50 in [3] came out at 132.

Take `Nc1nccc(-c2ccc3nc(C4COc5ccc(C(=O)NCCc6ccccn6)cc5C4)[nH]c3c2)n1` (configuration not stated): the IC50 in [2] stood at 305 nM; in [5], 0.43 nM. Further, the Ratio IC50 in [3] is 709.

Turning to `CN(C)CCNC(=O)c1ccc2c(c1)CC(c1nc3ccc(-c4ccnc(N)n4)cc3[nH]1)CO2` (configuration not stated), the values for the half-inhibitory concentration (IC50) in [2] and in [5] were 328 nM and 1.5 nM, respectively. Also, the Ratio IC50 in [3] came to 219.

Take `Nc1nccc(-c2ccc3nc(C4COc5ccc(C(=O)NCCc6ccccc6)cc5C4)[nH]c3c2)n1` (configuration not stated): the IC50 in [2] turned out to be 700 nM; in data set [5] it was 1.7 nM. For the same compound, in data set [3], the Ratio IC50 turned out to be 412.

`COc1ccc2c(c1)CC(c1nc3c(OCCN(C)C)cc(-c4ccncc4)cc3[nH]1)CO2` (configuration not stated): the outcome in data set [1], in [4], in [6] and in data set [7] was Active. The IC50 in data set [2] was over 20000 nM; in data set [5], 440 nM. Moreover, in data set [3], the Ratio IC50 is over 45.

Broadly, the AUC is concentration integrated over time. Read a high AUC as high exposure. For the compound `COc1ccc2c(c1)CC(c1nc3ccc(-c4ccnc(N)n4)cc3[nH]1)CO2` (configuration not stated), the figures for the IC50 in data set [2], in [8] and in data set [5] were 485 nM, 85 nM and 1.7 nM, respectively. For the same compound, in [3], the Ratio IC50 was 285. Moreover, the area under the curve (AUC) in data set [9] stood at 1.9 µM·h.

With `COc1ccc2c(c1)OCC(c1nc3ccc(-c4ccnc(N)n4)cc3[nH]1)C2` (configuration not stated), the half-inhibitory concentration (IC50) in data set [2] was 435 nM; in [5], 95 nM. For the same compound, the Ratio IC50 in data set [3] worked out at 4.6.

As to `Nc1nccc(-c2ccc3nc(C4COc5ccccc5C4)[nH]c3c2)n1` (configuration not stated), the IC50 stood at 195 nM in data set [2] and 8 nM in data set [5]. In data set [3], the Ratio IC50 is 24.

With `c1ccc2c(c1)OCC(c1nc3ccc(-c4ccncc4)cc3[nH]1)O2` (configuration not stated), the result in [1], in data set [4], in data set [6] and in data set [7] was Active. Further, the figures for the half-inhibitory concentration (IC50) in [2] and in data set [5] were 355 nM and 7.5 nM, respectively. Moreover, the Ratio IC50 in data set [3] is 47.

In the case of `Nc1nccc(-c2ccc3nc(C4COc5ccc(C(=O)NCc6cccnc6)cc5C4)[nH]c3c2)n1` (configuration not stated), the concentration for half-maximal inhibition (IC50) was 82 nM in [2] and 0.78 nM in [5]. Besides, the Ratio IC50 in [3] came out at 105.

`c1ccc2c(c1)OCC(c1nc3ccc(-c4ccncc4)cc3n1CC1CC1)O2` (configuration not stated): the outcome in [1], in data set [4], in [6] and in [7] was Active. The half-inhibitory concentration (IC50) in data set [2] was 850 nM; in [5], 24 nM. The Ratio IC50 in data set [3] stood at 35.

With `COc1c(-c2ccncc2)ccc2nc(C3COc4ccccc4C3)[nH]c12` (configuration not stated), the result in data set [1], in data set [4], in data set [6] and in data set [7] was Active. Also, the IC50 in [2] came out at 187 nM; in data set [5], 4.1 nM. Besides, the Ratio IC50 in [3] was 46.

Take `FC(F)(F)c1cc2nc(C3COc4ccccc4O3)[nH]c2cc1-c1ccncc1` (configuration not stated): the result in [1], in [4], in [6] and in data set [7] was Active. Besides, the values for the IC50 in data set [2] and in data set [5] were 3080 nM and 2970 nM, respectively. Moreover, the Ratio IC50 in data set [3] was determined as 1.

As for `Cn1c(C2COc3ccccc3O2)nc2ccc(-c3ccncc3)cc21` (configuration not stated), the outcome in data set [1], in [4], in [6] and in data set [7] was Active. The IC50 in data set [2] amounted to 1960 nM; in data set [5], 15 nM. Moreover, the Ratio IC50 in data set [3] came to 131.

In the case of `COc1cccc2c1OCC(c1nc3ccc(-c4ccnc(N)n4)cc3[nH]1)C2` (configuration not stated), the half-inhibitory concentration (IC50) was determined as 232 nM in [2] and 256 nM in [5]. In addition, in data set [3], the Ratio IC50 was found to be 0.9.

As to `c1ccc2c(c1)OCC(c1nc3ccc(-c4ccncc4)cc3n1CCN1CCOCC1)O2` (configuration not stated), the result in [1], in data set [4], in data set [6] and in [7] was Active. Moreover, the figures for the half-maximal inhibitory concentration (IC50) in data set [2] and in data set [5] were 6120 nM and 130 nM, respectively. Besides, the Ratio IC50 in [3] stood at 47.

Consider `COc1cccc2c1CC(c1nc3ccc(-c4ccnc(N)n4)cc3[nH]1)CO2` (configuration not stated), for which the values for the IC50 in data set [2] and in [5] were 310 nM and 25 nM, respectively. In [3], the Ratio IC50 is 12.

Regarding `c1ccc(CCn2c(C3COc4ccccc4O3)nc3ccc(-c4ccncc4)cc32)cc1` (configuration not stated), the result in data set [1], in data set [4], in data set [6] and in data set [7] was Active. In addition, the 50% inhibitory concentration (IC50) was found to be 8810 nM in [2] and 680 nM in data set [5]. Besides, in data set [3], the Ratio IC50 worked out at 13.

Turning to `c1ccc2c(c1)OCC(c1nc3ccc(-c4ccncc4)cc3n1C1CCOCC1)O2` (configuration not stated), the result in data set [1], in data set [4], in data set [6] and in data set [7] was Active. The 50% inhibitory concentration (IC50) in [2] turned out to be 509 nM; in [5] it was 27 nM. The Ratio IC50 in [3] worked out at 19.
